Details: for log10 BCF / log10 biotransformation half-life (days): fish

Compound | melting point | boiling point | also measured
CCOc1cc(C(C)(C)C)ccc1C1COC(c2c(F)cccc2F)=N1 (stereo unspecified) | 102 °C | – | log10 vapour pressure (mmHg): -7.79
CCc1cc(C)cc(O)c1 | 51.6 °C | 236 °C | log10 vapour pressure (mmHg): -2.06
COc1cccc(S)c1 | – | 224 °C | –
CC(C)OC(=O)C(Cl)(Cl)Cl | – | 175 °C | –
CCCCCC(=O)CC | – | 168 °C | log10 vapour pressure (mmHg): 0.301
ClC1=C(Cl)C(Cl)(Cl)C(Cl)=C1Cl | -9 °C | 239 °C | log10 Henry constant (atm·m³/mol): -1.57; log10 vapour pressure (mmHg): -1.22; ready biodegradability: not readily biodegradable
CC1=NNC(=O)N(/N=C/c2cccnc2)C1 | 217 °C | – | –
C[C@H]1/C(=C\C(=O)OCCN(C)C)CC[C@H]2[C@H]1C(=O)C[C@H]1C(C)(C)[C@@H](O)CC[C@]21C | 142 °C | – | –
Cc1cc(Cl)c(Cl)cc1Cl | 82.4 °C | 231 °C | log10 Henry constant (atm·m³/mol): -2.82; log10 BCF: 3.87; log10 biotransformation half-life (days): 2.01
CCCCCCCCc1ccc(Nc2ccc(CCCCCCCC)cc2)cc1 | – | – | ready biodegradability: not readily biodegradable
COc1cccc([N+](=O)[O-])c1 | 38.5 °C | 258 °C | ready biodegradability: not readily biodegradable; log10 BCF: 0.78; log10 biotransformation half-life (days): -1.04
CO[SiH](OC)OC | -115 °C | 81 °C | log10 vapour pressure (mmHg): 1.88
CC1=C(/C=C/C(C)=C/C=C/C(C)=C/C=O)C(C)(C)CC=C1 | 77.5 °C | – | –
C/C=C(\C)c1ccccc1 | -23.5 °C | – | –
CC(C)OCCO | – | 145 °C | log10 Henry constant (atm·m³/mol): -6.04; ready biodegradability: not readily biodegradable
CCCCOCc1ccco1 | – | 190 °C | –
CC(=O)c1ccc(O)cc1 | 110 °C | – | ready biodegradability: readily biodegradable
Nc1ccc(C(=O)N[C@@H](CCC(=O)O)C(=O)O)cc1 | 173 °C | – | –
CN(C)CCN1C(=O)c2ccccc2Nc2cc(Cl)ccc21 | 166 °C | – | –
CCCOC(=O)N1CCNCC1 | – | – | ready biodegradability: readily biodegradable
C=CC=CC=C | -12 °C | 78 °C | log10 vapour pressure (mmHg): 1.95

Compound | melting point | boiling point | also measured
Cc1ccc(S(=O)(=O)NC(=O)NC2CCCCC2)cc1 | 175 °C | – | –
CCCOC(=O)CCCCC(=O)OCCC | -15.7 °C | – | –
COC(=O)C=C(Cl)C(=O)OC | – | 224 °C | –
CCCCCCCCCCCCN | 28.3 °C | 259 °C | log10 vapour pressure (mmHg): -2.09
NC(=O)c1ccc(N)cc1 | 182 °C | – | –
CCC(C)CC(C)(C)C (stereo unspecified) | -120 °C | 126 °C | log10 vapour pressure (mmHg): 1.2
CC=Cc1ccc(OCC)c(O)c1 | 87 °C | – | –
Cc1[nH]c2ccccc2c1C | 106 °C | 285 °C | –
CCc1cccc(CC)c1N | 3.5 °C | 236 °C | log10 vapour pressure (mmHg): -2.42
CC(C)=CCCC(C)CC(=O)O (stereo unspecified) | 257 °C | – | –
CCc1ccccc1 | -94.9 °C | 136 °C | log10 Henry constant (atm·m³/mol): -2.1; log10 Koa: 3.74; log10 Koc (L/kg): 2.23; log10 biodegradation half-life (days): 0.903; log10 vapour pressure (mmHg): 0.982
CC(=O)C=O | – | 72 °C | log10 Henry constant (atm·m³/mol): -6.57
CCCCCCCCCCCCCC=O | 20.5 °C | 260 °C | –
CCCCCCCCCCCC(C)O (stereo unspecified) | 23 °C | – | –
CC(C)(C)C1CCCCC1 | -41.2 °C | 172 °C | log10 vapour pressure (mmHg): 0.368
Cc1cccc(NC(=O)c2ccccc2C(=O)O)c1 | 150 °C | – | –
CC(C)OC(=O)C(=O)OC(C)C | – | 191 °C | –
Cc1ccc(C(=O)O)c(C)c1 | 90 °C | 268 °C | –
OCCn1ccnc1 | 39 °C | – | –
CC1=C(/C=C/C(C)=C/C=C/C(C)=C/C=C/C=C(C)/C=C/C=C(C)/C=C/C2=C(C)CCCC2(C)C)C(C)(C)CCC1 | 183 °C | – | –
CCCCC(=O)OCC | -91.2 °C | 146 °C | log10 Koc (L/kg): 1.97; log10 vapour pressure (mmHg): 0.681

Compound | melting point | boiling point | also measured
CC(=O)Nc1ccc(/N=N/c2cc(C)ccc2O)cc1 | 195 °C | – | log10 vapour pressure (mmHg): -10.3
CC[C@H]1CN2CCc3cc(OC)c(OC)cc3[C@@H]2C[C@@H]1C[C@@H]1NCCc2cc(O)c(OC)cc21 | 116 °C | – | –
CC(C)CBr | -119 °C | 91.1 °C | –
Oc1c(Cl)cc(Cl)cc1Cl | – | – | log10 Koc (L/kg): 3.03; ready biodegradability: readily biodegradable; log10 BCF: 1.94; log10 biotransformation half-life (days): -0.57
CC(F)(Cl)CCl (stereo unspecified) | -91.7 °C | 88.6 °C | –
FC(Cl)(Cl)C(F)(Cl)Cl | 26 °C | 93 °C | log10 vapour pressure (mmHg): 1.7; ready biodegradability: not readily biodegradable; log10 BCF: 1.77
C[C@]12CC[C@@H]3c4ccc(O)cc4CC[C@H]3[C@@H]1CC[C@@H]2O | 200 °C | – | –
CC(C)(C)SSC(C)(C)C | -5 °C | – | –
O=C1NC(=O)C2C3C(C(O)(c4ccccc4)c4ccccn4)=CC(C3=C(c3ccccc3)c3ccccn3)C12 (stereo unspecified) | 194 °C | – | –
C=CCCCCCC | -102 °C | 121 °C | log10 Koa: 3.35; log10 vapour pressure (mmHg): 1.24
COc1ccc(I)cc1 | 53 °C | 238 °C | –
FC(F)(F)C1(F)C(F)(F)C(F)(F)C(F)(C(F)(F)F)C(F)(F)C1(F)F (stereo unspecified) | – | 100 °C | –
N#Cc1ccc2[nH]ccc2c1 | 107 °C | – | –
COC(=O)Nc1cccc(C)c1 | – | – | ready biodegradability: readily biodegradable
Cc1cocn1 | – | 88 °C | –
CCCC(C)(CC)C(C)C (stereo unspecified) | – | 166 °C | –
Clc1ccc(-c2cc(Cl)c(Cl)cc2Cl)cc1Cl | – | – | log10 Koa: 9.82; log10 vapour pressure (mmHg): -5.05; log10 biotransformation half-life (days): 2.19
CC(C)(CCl)c1ccccc1 | – | 223 °C | –
CNC(=O)Nc1ccc(OC)c(Cl)c1 | – | – | log10 Koc (L/kg): 1.84
COC(OC)OC | – | 104 °C | –
CC1(C)C2CC3OC3(C)C1C2 (stereo unspecified) | – | 185 °C | log10 vapour pressure (mmHg): -0.0872

Compound | melting point | boiling point | also measured
CCCCCCCCCCCCCC(=O)OC | 19 °C | 295 °C | log10 vapour pressure (mmHg): -3.31
C#CC(O)(CC)CC | – | 138 °C | –
O=[N+]([O-])Cc1ccccc1 | – | 226 °C | –
Oc1ccccc1-c1nc2ccccc2o1 | 124 °C | 338 °C | –
CCC(C)c1ccc(O)c([N+](=O)[O-])c1 (stereo unspecified) | – | – | log10 Henry constant (atm·m³/mol): -4.02; log10 vapour pressure (mmHg): -2.34
O=[N+]([O-])c1cccc2cccc(Cl)c12 | 95.8 °C | – | –
NCCCCCCCCCCC(=O)O | 191 °C | – | –
COc1cccc(C(=O)NN(C(=O)c2cc(C)cc(C)c2)C(C)(C)C)c1C | 204 °C | – | –
CCOP(=S)(OCC)SCCS(=O)(=O)CC | – | – | log10 Koc (L/kg): 3.22; log10 BCF: 0.7; log10 biotransformation half-life (days): -0.67
O=S(=O)(O)CS(=O)(=O)O | 98 °C | – | –
CCOC(=O)CC(C)O (stereo unspecified) | – | 185 °C | –
CC(C)c1ccc(C(C)C)cc1 | -17 °C | 210 °C | log10 vapour pressure (mmHg): -0.609; ready biodegradability: not readily biodegradable; log10 BCF: 3.24; log10 biotransformation half-life (days): 0.6
COCC(=O)O | 7.7 °C | 204 °C | log10 vapour pressure (mmHg): -0.839
O=[N+]([O-])N1CCCCC1 | -5.5 °C | 245 °C | –
CC(C)CCCCCOC(=O)C(C)Oc1ccc(Cl)cc1Cl (stereo unspecified) | -37 °C | – | log10 vapour pressure (mmHg): -5.47
COc1cccc(C(=O)O)c1OC | 123 °C | – | log10 vapour pressure (mmHg): -5.73
Clc1cc(Cl)c2oc3cc(Cl)c(Cl)cc3c2c1 | 202 °C | – | log10 vapour pressure (mmHg): -7.71
CC(=O)[C@@]12O[C@](C)(c3ccccc3)O[C@@H]1C[C@H]1[C@@H]3CCC4=CC(=O)CC[C@]4(C)[C@H]3CC[C@@]12C | 150 °C | – | –
O=C(CCCN1CCC(n2c(=O)[nH]c3ccccc32)CC1)c1ccc(F)cc1 | 171 °C | – | –
O=C(O)c1cccc2ccccc12 | – | – | ready biodegradability: not readily biodegradable

— the OPERA property sets (Mansouri et al. 2018)
